Data published in ChEMBL document CHEMBL3272342, “Nonsteroidal antiinflammatory agents. 2. Synthesis and biological activity of 2-chloroindolecarboxylic acids” (J Med Chem, 1977).

Tests used:
[1] = Toxicity in ip dosed Swiss mouse; type: organism-based; settings: in vivo
Rattus norvegicus [2] = assay: Antiinflammatory activity in Wistar rat assessed as inhibition of carrageenan-induced edema measured as increase in foot volume at 40 mg/kg, po administered 1 hr prior challenge measured 7 hrs after carrageenin injection (reference value: 178.8 %); type: functional; parameters: scale not given: the % may be the effect or the level left
Rattus norvegicus [3] = assay: Antiinflammatory activity in Wistar rat assessed as inhibition of carrageenan-induced edema measured as increase in foot volume at 20 mg/kg, po administered 1 hr prior challenge measured 7 hrs after carrageenin injection (reference value: 178.8 %); type: functional; parameters: scale not given: the % may be the effect or the level left
Rattus norvegicus [4] = assay: Antiinflammatory activity in Wistar rat assessed as inhibition of carrageenan-induced edema measured as increase in foot volume at 5 mg/kg, po administered 1 hr prior challenge measured 7 hrs after carrageenin injection (reference value: 178.8 %); type: functional; parameters: scale not given: the % may be the effect or the level left
Rattus norvegicus [5] = assay: Antiinflammatory activity in Wistar rat assessed as inhibition of carrageenan-induced edema measured as increase in foot volume at 20 mg/kg, po administered 1 hr prior challenge measured 3 hrs after carrageenin injection (reference value: 187.6 %); type: functional; parameters: scale not given: the % may be the effect or the level left
Rattus norvegicus [6] = assay: Antiinflammatory activity in Wistar rat assessed as inhibition of carrageenan-induced edema measured as increase in foot volume at 40 mg/kg, po administered 1 hr prior challenge measured 3 hrs after carrageenin injection (reference value: 187.6 %); type: functional; parameters: scale not given: the % may be the effect or the level left
Rattus norvegicus [7] = assay: Antiinflammatory activity in Wistar rat assessed as inhibition of carrageenan-induced edema measured as increase in foot volume at 5 mg/kg, po administered 1 hr prior challenge measured 3 hrs after carrageenin injection (reference value: 187.6 %); type: functional; parameters: scale not given: the % may be the effect or the level left

Structure (SMILES) | LD50 [1] | Activity (Rattus norvegicus [2]) | Activity (Rattus norvegicus [3]) | Activity (Rattus norvegicus [4]) | Activity (Rattus norvegicus [5]) | Activity (Rattus norvegicus [6]) | Activity (Rattus norvegicus [7])
O=C(O)c1c(Cl)[nH]c2ccccc12 | > 500 mg/kg | 132.1% | 153.5% | 143.4% | 161.7% | 156.4% | 153.1%
Cn1c(Cl)c(C(=O)O)c2ccccc21 | > 500 mg/kg | 150.7% | 133.8% | 133.3% | 146.5% | 148.3% | 145.1%
O=C(O)c1c(Cl)n(-c2ccccc2)c2ccccc12 | > 500 mg/kg | 201.1% | 130.1% | 151.4% | 149.4% | 173.8% | 159.8%
O=C(O)Cc1c(Cl)n(-c2ccccc2)c2ccccc12 | > 500 mg/kg | 186.4% | 191.8% | 200.9% | 165.9% | 138% | 170.3%
COc1ccc2c(c1)c(CC(=O)O)c(C)n2C(=O)c1ccc(Cl)cc1 [INDOMETHACIN] |  |  |  | 106.8% |  |  | 98.5%
